Assay results published in patent US10294202B2, “Pyrrolidinones as herbicides” (FMC Corporation, priority 2013, dated 2019).

Assays:
[1] = system: rice; test: Test B flooded paddy test; format: in vivo, Oryza sativa; details: 500 g ai/ha, Flood; scale of 0 to 100 where 0 is no effect and 100 is complete control
Summary of the method: (§1)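 Visual ratings from 0, meaning no effect, up to 100, meaning complete control, were made by comparison with untreated controls 13 to 15 days after treatment. Test compounds went straight into floodwater standing 3 cm over the soil of pots holding 2-leaf seedlings.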

[2] = system: giant foxtail; test: Test A pre-/postemergence herbicide test; format: in vivo, Setaria faberii
Summary of the method: (§2)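 Directed soil spray to seeded pots (preemergence) or spray onto one- to two-leaf seedlings 2–10 cm tall (postemergence); loam/sand substrate throughout. Evaluated visually after about 10 days against untreated plants, 0 = no effect, 100 = complete control.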

[3] = system: kochia; test: Test A pre-/postemergence herbicide test; format: in vivo, Kochia scoparia
Summary of the method: as §2

[4] = system: ragweed; test: Test A pre-/postemergence herbicide test; format: in vivo, Ambrosia elatior
Summary of the method: as §2

[5] = system: ducksalad; test: Test B flooded paddy test; format: in vivo, Heteranthera limosa; details: 500 g ai/ha, Flood; scale of 0 to 100 where 0 is no effect and 100 is complete control
Summary of the method: as §1

[6] = system: ryegrass, Italian; test: Test A pre-/postemergence herbicide test; format: in vivo, Lolium multiflorum
Summary of the method: as §2

[7] = system: barnyardgrass; test: Test A pre-/postemergence herbicide test; format: in vivo, Echinochloa crus-galli
Summary of the method: as §2

[8] = system: corn; test: Test A pre-/postemergence herbicide test; format: in vivo, Zea mays; details: Postemergence
Summary of the method: as §2

[9] = system: pigweed; test: Test A pre-/postemergence herbicide test; format: in vivo, Amaranthus retroflexus
Summary of the method: as §2

[10] = system: barnyardgrass; test: Test B flooded paddy test; format: in vivo, Echinochloa crus-galli; details: 500 g ai/ha, Flood; scale of 0 to 100 where 0 is no effect and 100 is complete control
Summary of the method: as §1

[11] = system: wheat; test: Test A pre-/postemergence herbicide test; format: in vivo, Triticum aestivum; details: Postemergence
Summary of the method: as §2

[12] = system: blackgrass; test: Test A postemergence herbicide test; format: in vivo, Alopecurus myosuroides
Summary of the method: (§3)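 Ratings compare treated with untreated plants roughly 10 days after a postemergence application made at the one- to two-leaf stage. Scoring uses 0–100, where 0 means no effect and 100 complete control.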

[13] = system: sedge, umbrella; test: Test B flooded paddy test; format: in vivo, Cyperus difformis; details: 500 g ai/ha, Flood; scale of 0 to 100 where 0 is no effect and 100 is complete control
Summary of the method: as §1

[14] = system: galium; test: Test A postemergence herbicide test; format: in vivo, Galium aparine
Summary of the method: as §3

[15] = 125 g ai/ha, visual rating, 0 to 100 scale, 0 no effect, 100 complete control, approximately 10 days, preemergence
[16] = Postemergence, 125 g ai/ha, 0 to 100 scale, 0 is no effect, 100 is complete control
[17] = preemergence, 500 g ai/ha, 0 to 100 scale, 0 is no effect and 100 is complete control
[18] = 125 g ai/ha, 0 to 100 scale, 0 is no effect, 100 is complete control
[19] = Postemergence, 500 g ai/ha, 0 to 100 scale (0 no effect, 100 complete control)
[20] = 500 g ai/ha, 0 to 100 scale (0 no effect, 100 complete control)
[21] = Preemergence, 125 g ai/ha, 0 to 100 scale where 0 is no effect and 100 is complete control
[22] = Postemergence, 125 g ai/ha, visual rating on 0 to 100 scale (0 no effect, 100 complete control), approx. 10 days
[23] = 125 g ai/ha, visual rating on 0 to 100 scale (0 no effect, 100 complete control), approx. 10 days

O=C1NCC(c2cccc(OC(F)F)c2)C1C(=O)Nc1ccccc1Br (stereo not drawn) [Compound 228]
80: Plant response rating, Foxtail, Giant [2, 15] | Barnyardgrass plant response rating (0 to 100 scale, 0 is no effect, 100 is complete control) ([7]; Postemergence, 500 g ai/ha) | Plant response rating, Barnyardgrass [7, 17]
20: Plant response rating, Kochia [3, 16] | Plant response rating, Kochia [3, 17] | Ragweed plant response rating (0 to 100 scale, 0 is no effect, 100 is complete control) ([4]; Postemergence, 500 g ai/ha) | Plant response rating, Ragweed [4, 17] | Ryegrass, Italian plant response rating (0 to 100 scale, 0 is no effect, 100 is complete control) ([6]; Postemergence, 500 g ai/ha) | Plant response rating, Corn [8, 18] | Wheat plant response rating (0 to 100 scale, 0 is no effect, 100 is complete control) ([11]; 500 g ai/ha) | Plant response rating, Blackgrass [12, 18]
70: Plant response rating, Foxtail, Giant [2, 16]
50: Plant response rating, Barnyardgrass [7, 15]
30: Kochia plant response rating (0 to 100 scale, 0 is no effect, 100 is complete control) ([3]; Postemergence, 500 g ai/ha) | Plant response rating, Ryegrass, Italian [6, 15] | Corn plant response rating (0 to 100 scale, 0 is no effect, 100 is complete control) ([8]; 500 g ai/ha) | Plant response rating, Galium [14, 18]
90: Foxtail, Giant plant response rating (0 to 100 scale, 0 is no effect, 100 is complete control) ([2]; Postemergence, 500 g ai/ha) | Plant response rating, Foxtail, Giant [2, 17] | Plant response rating, Ducksalad [5]
40: Plant response rating, Ryegrass, Italian [6, 17] | Blackgrass plant response rating (0 to 100 scale, 0 is no effect, 100 is complete control) ([12]; 500 g ai/ha) | Galium plant response rating (0 to 100 scale, 0 is no effect, 100 is complete control) ([14]; 500 g ai/ha)
0: Plant response rating, Rice [1] | Plant response rating, Kochia [3, 15] | Plant response rating, Ragweed [4, 15] | Plant response rating, Ragweed [4, 16] | Plant response rating, Ryegrass, Italian [6, 16] | Plant response rating, Pigweed [9, 15] | Plant response rating, Pigweed [9, 16] | Pigweed plant response rating (0 to 100 scale, 0 is no effect, 100 is complete control) ([9]; Postemergence, 500 g ai/ha) | Plant response rating, Pigweed [9, 17] | Plant response rating, Barnyardgrass [10] | Plant response rating, Wheat [11, 18] | Plant response rating, Sedge, Umbrella [13]
60: Plant response rating, Barnyardgrass [7, 16]

O=C1NCC(c2ccc(F)cc2)C1C(=O)Nc1ccccc1F (stereo not drawn) [Compound 239]
90: Plant response rating, Foxtail, Giant [2, 19] | Plant response rating, Foxtail, Giant [2, 17] | Plant response rating, Ragweed [4, 17] | Plant response rating, Barnyardgrass [7, 19] | Plant response rating, Barnyardgrass [7, 17]
0: Plant response rating, Rice [1] | Plant response rating, Kochia [3, 15] | Plant response rating, Kochia [3, 16] | Plant response rating, Ragweed [4, 15] | Plant response rating, Ragweed [4, 16] | Plant response rating, Ragweed [4, 19] | Plant response rating, Ryegrass, Italian [6, 15] | Plant response rating, Ryegrass, Italian [6, 16] | Plant response rating, Ryegrass, Italian [6, 17] | Plant response rating, Corn [8, 18] | Plant response rating, Corn [8, 20] | Plant response rating, Pigweed [9, 15] | Plant response rating, Pigweed [9, 16] | Plant response rating, Pigweed [9, 19] | Plant response rating, Pigweed [9, 17] | Plant response rating, Wheat [11, 18] | Plant response rating, Sedge, Umbrella [13] | Plant response rating, Galium [14, 18]
30: Plant response rating, Galium [14, 20]
70: Plant response rating, Kochia [3, 17]
20: Plant response rating, Kochia [3, 19] | Plant response rating, Ryegrass, Italian [6, 19] | Plant response rating, Wheat [11, 20] | Plant response rating, Blackgrass [12, 18] | Plant response rating, Blackgrass [12, 20]
80: Plant response rating, Foxtail, Giant [2, 15]
100: Plant response rating, Ducksalad [5]
50: Plant response rating, Foxtail, Giant [2, 16] | Plant response rating, Barnyardgrass [7, 15] | Plant response rating, Barnyardgrass [7, 16] | Plant response rating, Barnyardgrass [10]

CC(C)N1CC(c2ccc(F)cc2)C(C(=O)Nc2cccc(F)c2F)C1=O (stereo not drawn) [Compound 276]
30: Plant response rating, Ducksalad [5]
0: Plant response rating, Rice [1] | Plant response rating, Foxtail, Giant [2, 16] | Plant response rating, Foxtail, Giant [2, 19] | Plant response rating, Foxtail, Giant [2, 21] | Plant response rating, Foxtail, Giant [2, 17] | Plant response rating, Kochia [3, 16] | Plant response rating, Kochia [3, 19] | Plant response rating, Kochia [3, 21] | Plant response rating, Kochia [3, 17] | Plant response rating, Ragweed [4, 22] | Plant response rating, Ragweed [4, 19] | Plant response rating, Ragweed [4, 21] | Plant response rating, Ragweed [4, 17] | Plant response rating, Ryegrass, Italian [6, 22] | Plant response rating, Ryegrass, Italian [6, 19] | Plant response rating, Ryegrass, Italian [6, 21] | Plant response rating, Ryegrass, Italian [6, 17] | Plant response rating, Barnyardgrass [7, 16] | Plant response rating, Barnyardgrass [7, 19] | Plant response rating, Barnyardgrass [7, 21] | Plant response rating, Barnyardgrass [7, 17] | Plant response rating, Corn [8, 18] | Plant response rating, Corn [8, 20] | Plant response rating, Pigweed [9, 22] | Plant response rating, Pigweed [9, 19] | Plant response rating, Pigweed [9, 21] | Plant response rating, Pigweed [9, 17] | Plant response rating, Barnyardgrass [10] | Plant response rating, Wheat [11, 23] | Plant response rating, Wheat [11, 20] | Plant response rating, Blackgrass [12, 18] | Plant response rating, Blackgrass [12, 20] | Plant response rating, Sedge, Umbrella [13] | Plant response rating, Galium [14, 18] | Plant response rating, Galium [14, 20]

O=C1NCC(c2ccc(Cl)o2)C1C(=O)Nc1ccccc1F (stereo not drawn) [Compound 284]
80: Plant response rating, Ducksalad [5]
10: Plant response rating, Rice [1] | Plant response rating, Foxtail, Giant [2, 19]
30: Plant response rating, Kochia [3, 17]
50: Plant response rating, Barnyardgrass [7, 19]
40: Plant response rating, Foxtail, Giant [2, 21] | Plant response rating, Pigweed [9, 17]
70: Plant response rating, Foxtail, Giant [2, 17]
0: Plant response rating, Foxtail, Giant [2, 22] | Plant response rating, Kochia [3, 22] | Plant response rating, Kochia [3, 19] | Plant response rating, Kochia [3, 21] | Plant response rating, Ragweed [4, 22] | Plant response rating, Ragweed [4, 19] | Plant response rating, Ragweed [4, 21] | Plant response rating, Ragweed [4, 17] | Plant response rating, Ryegrass, Italian [6, 22] | Plant response rating, Ryegrass, Italian [6, 19] | Plant response rating, Ryegrass, Italian [6, 21] | Ryegrass, Italian plant response rating ([6]; Preemergence, 500 g ai/ha, visual rating on 0 to 100 scale (0 no effect, 100 complete control)) | Plant response rating, Barnyardgrass [7, 22] | Plant response rating, Barnyardgrass [7, 21] | Plant response rating, Corn [8, 23] | Plant response rating, Corn [8, 20] | Plant response rating, Pigweed [9, 22] | Plant response rating, Pigweed [9, 19] | Plant response rating, Pigweed [9, 21] | Plant response rating, Barnyardgrass [10] | Plant response rating, Wheat [11, 23] | Plant response rating, Wheat [11, 20] | Plant response rating, Blackgrass [12, 23] | Plant response rating, Blackgrass [12, 20] | Plant response rating, Sedge, Umbrella [13] | Plant response rating, Galium [14, 23]
60: Plant response rating, Barnyardgrass [7, 17] | Plant response rating, Galium [14, 20]
